This is an account of results in US20160244435A1, “EXPANDED THERAPEUTIC POTENTIAL IN NITROHETEROARYL ANTIMICROBIALS” (The Regents of the University of California, priority 2013, published 2016).

In one assay the test system is Giardia. As to conditions: cited from earlier work.
In assay [1] the test system is Mz-sensitive (MzS) G. lamblia strain 713. The assay is described as follows: Giardia 48 h growth and survival assay (ATP read-out), Mz-sensitive line. In kind it is cell-based, Giardia lamblia. Particulars: Giardia duodenalis; sensitive 713 line (MzS cells).
Assay [2] relates to Mz-resistant (MzR) G. lamblia 713 line. Description: microbe, parasite or virus in culture. In kind it is cell-based, Giardia lamblia.
The test system of a further assay is G. lamblia GS/M. Description: Murine Giardia infection model. It is filed as in vivo, C57BL/6 mice. Particulars: single oral dose, data not shown.
Setting [3] is: regimen not stated or depending on dosing regimens.

pEC50: −log10 of the molar value. Like-named read-outs stand apart in the source and are kept apart here.

For `CCN(CC)CCCC(C)Nc1c2ccc(Cl)cc2nc2ccc(OC)cc12` (stereo not shown) [quinacrine], the efficacy result in the assay on Giardia (setting [3]) is “up to 90%”.
Take `Cc1ncc([N+](=O)[O-])n1CCO` [Mz, metronidazole]: the figures for the pEC50 in assay [1] and in assay [2] (Giardia duodenalis) were 5.70 and 4.30, respectively. Also, the “residual activity in MzR compared to MzS cells, 100%×(EC50 in MzS/EC50 in MzR)” value in assay [2] (713 syngeneic pair) was 4%. Besides, in the assay with Giardia (single-dose treatment), the efficacy is given as 20-60%. Also, the “efficacy (cases in which effective)” value in the assay on Giardia (three daily 250 mg oral doses for 5-10 days) is on record as 80-95%. In addition, in the assay with G. lamblia GS/M, the “lowest single dose that eradicates giardiasis in at least half of infected mice” value was 100 mg/kg.
Regarding `CCCSc1ccc2nc(NC(=O)OC)[nH]c2c1` [albendazole], the efficacy in the assay on Giardia (setting [3]) is 25-90%.
With `O=C1OCCN1/N=C/c1ccc([N+](=O)[O-])o1` [furazolidone], in the assay on Giardia (setting [3]), the efficacy is 80-85%.
As to `CC(=O)Oc1ccccc1C(=O)Nc1ncc([N+](=O)[O-])s1` [nitazoxanide], the efficacy in the assay on Giardia (two daily 500 mg doses for three days) is on record as 70-80%.

The term pEC50 denotes −log10 of the EC50, conventionally taken in molar units.
